Source: patent US20200087625A1, “METHODS FOR ISOLATING, EXPANDING AND ADMINISTERING CANCER SPECIFIC CD8+ T CELLS” (priority 2017, published 2020)

Tests used:
SCC7 = SCC7 tumor model, 1V270 with systemic anti-PD-1 agent; format: in vivo, C3H mice; settings: day 21, flow cytometry
Procedure: FIGS. 2A-2F. […] C3H mice (n=5-8/group) were implanted with SCC7 and carcinoma cells 1A. Tumors and spleens were harvested on day 21 and T cells in TILs or spleens were analyzed by flow cytometry. (A and B) Tumor infiltrating CD8^+ T cells were gated on CD45^+CD3^+CD8^+ populations. Number of CD8^+ T cells (A) and IFNγ^+CD8^+ cells (B) per tumor volume (mm^3) were calculated and plotted. (C) Representative immunohistochemistry images of the tumors (day 21) stained for CD8 (red) and DAPI (blue). Scale bar: 20 μm. (D) Number of IFNγ^+CD8^+ T cells in spleens. Bars indicate mean±SEM. Each dot represents an individual animal and bars indicate mean±SEM in A, B and D. P*<0.05, **P<0.01 (Kruskal-Wallis test with Dunn's post hoc test), n=5-8/group. (E) Tumor volumes at the injected sites were plotted against the log of the number of IFNγ^+CD8^+ T cells in the tumor microenvironment. […] (F) The tumor volumes (day 21, injected side) were plotted against the log of the numbers of IFNγ^+CD8^+ T cells in the spleen.
FIGS. 3A-3E. […] (A-D) SCC7-bearing mice (n=4/group) were treated as described in FIG. 2. Tumors and spleens were harvested on day 21 and CD8^+ T cells were isolated using MACSMicroBead. RNA was isolated and next-generation sequencing was performed. (A) Representative data of TCR repertoire clonality of CD8^+ T cells. […]

4T1 cells = experiment: IV (experimental) lung metastasis model of 4T1 breast cancer; format: in vivo, BALB/c mice
CD8+ T cells = experiment: CD8+ T cell activation (mLN flow cytometry) and lung histology in IV metastasis model; format: in vivo, BALB/c mice; settings: day 21, vs vehicle
Procedure: FIGS. 23A-23G. Systemic administration of […] induces tumor-specific CD8^+ T cells. (A) Protocol of IV metastasis model. (B) BALB/c mice (n=B-15/group) were i.v. injected with 4T1 cells (2×10^4) on day 0.1V270 (2, 20, or 200 μg/injection) was i.p. administered on days −1, 7, 10, and 14. The numbers of lung nodules were counted on day 21. (C) 200 μg/injection 1V270 was i.p. administered on days −1 or 0 followed by days 7, 10, and 14 where indicated. The numbers of lung nodules were counted on day 21. Each dot indicates an individual mouse and horizontal and vertical bars indicate means±SEM. *P<0.05, **P<0.01 Kruskal-Wallis test with Dunn's post hoc test comparing treatment groups against vehicle group. (D-G) BALB/c mice (n=10/group) were treated with 1V270 (200 μg/injection) on day-1 and 4T1 cells were inoculated on day 0. (D,E) Three weeks later, mLNs cells were stained for CD3 and CD8. Intracellular granzyme B (D) and IFNγ (E) were analyzed by flow cytometry. Data are representative of 2 independent experiments showing similar results. *P<0.05, by the Mann-Whitney U test comparing the 1V270 treatment groups against the vehicle treated group. (F) Histological analysis of lungs on day 21. Representative images of H&E staining and immunohistochemical staining for CD3 and CD45. Scale bar: 100 μm. Original magnification ×200. (G) Tumor-specific cytotoxicity was examined using 4T1 cells as target cells and BALB/3T3 cells as irrelevant target cells. […] The percent specific killing was calculated. Data were analyzed by two-way ANOVA using a Bonferroni post hoc test comparing treatment groups against vehicle group. *P<0.05. […]
To make the single cell suspensions, tumors were dissociated using the mouse tumor dissociation kit (MiltenyiBiotec, San Diego, Calif.) and the gentle MACSOcto Dissociator according to the manufacture's protocol. […] Total cell number was counted by the ViaCount assay (MilliporeSigma, Darmstadt, Germany). […]

Compound: CCCCCCCCC=CCCCCCCCC(=O)OCC(COP(=O)(O)OCCNC(=O)c1ccc(Cn2c(=O)[nH]c3c(N)nc(OCCOC)nc32)cc1)OC(=O)CCCCCCCC=CCCCCCCCC (centres unmarked) [1V270]
- CD8+ population in TILs (SCC7): increased CD8^+ population in TILs
- lung metastasis after a single administration (4T1 cells; 200 μg i.p., 1 day prior to tumor inoculation): sufficient to inhibit lung metastasis
- lung metastasis (number of lung nodules) (4T1 cells; 1V270 2, 20 or 200 μg/injection i.p. days -1, 7, 10, 14, counted day 21): inhibited lung metastasis in a dose-dependent manner
- lowest effective dose (4T1 cells; i.p., inhibition of lung metastasis): 20 µg
- number of lung nodules (4T1 cells; intranasal 20 or 200 μg/50 μL on days -3, -1, 3, 7, 10): inhibited the number of lung nodules in a dose-dependent manner
- infiltration of CD45+CD3+ cells in the pulmonary tumor microenvironment (CD8+ T cells; histology): higher infiltration
- percentage of IFNγ positive CD8+ T cells (CD8+ T cells; mLN, 1V270 200 μg day -1): Significantly higher percentages
- percentage of granzyme B positive CD8+ T cells (CD8+ T cells; mLN, 1V270 200 μg day -1): Significantly higher percentages
